Results reported in patent US20260132374A1, “Compositions and Methods for Efficient Amplification of Retinal Progenitors Cells” (SORBONNE UNIVERSITE, priority 2018, published 2026).

System: hiRPCp2
Experiment: Differentiation ability of hiRPCp2 expanded in K+ medium (qRT-PCR of CRX and BRN3A)
Format: cell-based, human
Details: Diff-2, late forced differentiation in ProB27 medium supplemented by DAPT, D10, qRT-PCR of CRX
Experimental: Total RNAs were extracted using Nucleospin RNA II kit (Macherey-Nagel) according to the manufacturer's protocol, and RNA yields and quality were checked with a NanoDrop spectrophotometer (Thermo Fisher Scientific). cDNA were synthesized from 250 ng of mRNA using the QuantiTect reverse transcription kit (Qiagen) following manufacturer's recommendations. Synthesized cDNA were then diluted at 1/20 in DNase-free water before performing quantitative PCR. qPCR analysis was performed on an Applied Biosystems real-time PCR machine (7500 Fast System) with custom TaqMan® Array 96-Well Fast plates and TaqMan® Gene expression Master Mix (Thermo Fisher Scientific) following manufacturer's instructions. All primers and MGB probes labeled with FAM for amplification were purchased from Thermo Fischer Scientific as described in Reichman et al., 2017 [2], ASCL1 (Assay ID Hs04187546_g1). Results were normalized against 18S and quantification of gene expression was based on the DeltaCt Method.
We tested the ability of the hiRPCs expanded after two passages (hiRPCp2) in K+ medium to be differentiated in retinal neurons. Three different culture conditions were tested: 1—By a spontaneous differentiation in ProB27 medium, a control condition. 2—By an “early forced” differentiation using ProB27 medium supplemented by DAPT, a Notch pathway inhibitor, directly after K+ medium condition at D3 (Diff 1). […]

C[C@H](NC(=O)Cc1cc(F)cc(F)c1)C(=O)N[C@H](C(=O)OC(C)(C)C)c1ccccc1 [DAPT]
differentiation of hiRPCp2: favors the hiRPCs differentiation in photoreceptor precursors
